Values after ≈ are worked out from the molar mass of the structure shown. Read-outs that look alike come from different tables or passages of the source.
How the values were obtained:
[1] = system: Enterobacter aerogenes (Ea); experiment: MIC in nutrient agar, Enterobacter aerogenes; type: cell-based, Enterobacter aerogenes ATCC 13048
Protocol: (§1) The minimum inhibitory concentration (MIC) for the compounds listed in Table I is determined for 9 bacteria, using nutrient agar, and 7 yeast and fungi, using malt yeast agar. A one percent solution of the test compound is prepared in a mixture of acetone and water. Nutrient agar is prepared at pH 6.8, representing a neutral medium, and at pH 8.2, representing an alkaline medium. The nutrient agars are prepared by adding 23 g of nutrient agar to one-liter of deionized water. In addition, the alkaline medium is prepared by adjusting a 0.04M solution of N-[tris-(hydroxymethyl)methyl]-glycine buffered deionized water with concentrated sodium hydroxide to a pH of […]. Malt yeast agar is prepared by adding 3 g yeast extract and 45 g malt agar per liter of deionized water. The specific agar is dispensed in 30 ml aliquots into 25×200 mm test tubes, capped and autoclaved for 15 minutes at 115° C. The test tubes containing the agar are cooled in a water bath until the temperature of the agar is 48° C. Then, an appropriate amount of the one percent solution of the test compound is added (except in the controls where no compound is added) to the respective test tubes so that the final concentrations are 500, 250, 100, 50, 25, 10, 5, 2.5, 1.0 and zero parts per million of the test compound in the agar, thus having a known concentration of test compound dispersed therein. The contents of the test tubes are then transferred to respective petri plates. After drying for 24 hours, the petri plates containing nutrient agar are inoculated with bacteria and those containing malt yeast agar are inoculated with yeast and fungi.
(§2) The inoculation with bacteria is accomplished by using the following procedure. Twenty-four hour-cultures of each of the bacteria are prepared by incubating the respective bacteria in tubes containing nutrient broth for 24 hours at 30° C. in a shaker. Dilutions of each of the 24 hour-cultures are made so that nine separate suspensions (one for each of the nine test bacteria) are made, each containing 10^8 colony forming units (CFU) per ml of suspension of a particular bacteria. Aliquots of 0.3 ml of each of the bacterial suspensions are used to fill the individual wells of Steer's Replicator. For each microbial suspension, 0.3 ml was used to fill three wells (i.e., three wells of 0.3 ml each) so that for the nine different bacteria, 27 wells are filled. The Steer's Replicator is then used to inoculate both the neutral and alkaline pH nutrient agar petri plates.
(§3) The inoculated petri plates are incubated at 30° C. for 48 hours and then read to determine if the test compound which is incorporated into the agar prevented growth of the respective bacteria.
(§4) Table II lists the bacteria, yeast and fungi used in the MIC test described above along with their respective American Type Culture Collection (ATCC) identification numbers.
(§5) The following MIC and MEC antimicrobial tests, whose results are shown in Tables XIII-XVII, are performed using the same methods as described hereinabove.

Escherichia coli (Ec) = experiment: MIC in nutrient agar, Escherichia coli; type: cell-based, Escherichia coli ATCC 11229
Protocol: as §1, §2, §3, §4, §5

[2] = system: Klebsiella pneumoniae (Kp); experiment: MIC in nutrient agar, Klebsiella pneumoniae; type: cell-based, Klebsiella pneumoniae ATCC 8308
Protocol: as §1, §2, §3, §4, §5

[3] = system: Staphylococcus aureus (Sa); experiment: MIC in nutrient agar, Staphylococcus aureus; type: cell-based, Staphylococcus aureus ATCC 6538
Protocol: as §1, §2, §3, §4, §5

[4] = system: Penicillium chrysogenum (Pc); experiment: MIC in malt yeast agar, Penicillium chrysogenum; type: cell-based, Penicillium chrysogenum ATCC 9480; conditions: read-out: Minimum Inhibitory Concentration, Pc
Protocol: as §1
(§6) The inoculation with the yeast and fungi is accomplished as follows. Cultures of yeast and fungi are incubated for seven days on malt yeast agar at 30° C. These cultures are used to prepare suspensions by the following procedure. A suspension of each organism is prepared by adding 10 ml of sterile saline and 10 microliters of octylphenoxy polyethoxy ethanol (TRITON® X-100, a trademark of Rohm & Haas Company) to the agar slant of yeast or fungi. The sterile saline/octylphenoxy polyethoxy ethanol solution is then agitated with a sterile swab to suspend the microorganism grown on the slant. Each resulting suspension is diluted into sterile saline (1 part suspension: 9 parts sterile saline). Aliquots of these dilutions are placed in individual wells of Steer's Replicator and petri plates inoculated as previously described. The petri plates are incubated at 30° C. and read after 48 hours for yeast and 72 hours for fungi.
as §4, §5

[5] = system: Saccharomyces cerevisiae (Sc); experiment: MIC in malt yeast agar, Saccharomyces cerevisiae; type: cell-based, Saccharomyces cerevisiae ATCC 4105; conditions: read-out: Minimum Inhibitory Concentration, Sc
Protocol: as §1, §6, §4, §5

[6] = system: Aureobasidium pullulan (Ap); experiment: MIC in malt yeast agar, Aureobasidium pullulan; type: cell-based, Aureobasidium pullulan ATCC 16622; conditions: read-out: Minimum Inhibitory Concentration, Ap
Protocol: as §1, §6, §4, §5

[7] = system: mixture of the bacterial organisms listed in Table II; experiment: Multiple Challenge Test in tape joint formulation; type: cell-based, bacteria listed in Table II; conditions: 10 challenges
Protocol: (§7) Additionally, the ability of the compounds of Table I to serve as preservatives in a variety of formulated industrial, household, and commercial products is tested using a Multiple Challenge Test Protocol. In this test, the formulations include a styrene-butadiene latex, a tape joint, a hand lotion, and a shampoo. The styrene-butadiene latex test formulation used is Latex DL 238A, available from The Dow Chemical Company. The compositions of the tape joint, hand lotion and shampoo test formulations can be found in Tables V-VII.
(§8) The formulations are separated into 50 g aliquots and placed in sterile bottles. An appropriate amount of a fresh one percent stock solution of the test compound in acetone-water is added to achieve the desired final concentrations. A small portion of each of the test formulations is streaked onto Tryptic Soy Agar (TSA) petri plates using sterile cotton swabs to ensure that the formulations are sterile. If the formulation is sterile, then it is inoculated with 0.1 ml of a mixture of equal aliquots of the 24 hour cultures of each of the bacterial organisms listed in Table II. The test formulations are then incubated at 30° C. After 24 hours, each sample is streaked onto a TSA petri plate using a sterile swab. All plates are then incubated at 30° C. for 48 hours and then rated for microbial growth using the rating system listed in Table VIII. Samples with a rating of 3 or less are reinoculated as described in the procedure for the first inoculation. Samples with a rating of 4 or greater are not reinoculated but after another 24 hours are restreaked on TSA agar.
(§9) The normal interpretation of the results is that a concentration of the antimicrobial being tested is considered to be effective if no ratings greater than a 3 are observed throughout the 10 challenges. The Minimum Effective Concentration (MEC), which is used to compare the activity of the antimicrobial additives in the end-use formulations, is the minimum level that is effective under the conditions of the Multiple Challenge Test.

[8] = system: mixture of the bacterial organisms listed in Table II; experiment: Multiple Challenge Test in hand lotion formulation; type: cell-based, bacteria listed in Table II; conditions: 10 challenges
Protocol: as §7, §8, §9

[9] = Klebsiella aerogenes, pH 6.8, read-out: Minimum Inhibitory Concentration, Ea
[10] = Klebsiella aerogenes, pH 8.2; read-out: Minimum Inhibitory Concentration, Ea
[11] = Escherichia coli, pH 6.8; read-out: Minimum Inhibitory Concentration, Ec
[12] = Escherichia coli, pH 8.2, read-out: Minimum Inhibitory Concentration, Ec
[13] = pH 6.8, read-out: Minimum Inhibitory Concentration, Kp
[14] = pH 8.2, read-out: Minimum Inhibitory Concentration, Kp
[15] = Staphylococcus aureus, pH 6.8; read-out: Minimum Inhibitory Concentration, Sa
[16] = Staphylococcus aureus, pH 8.2, read-out: Minimum Inhibitory Concentration, Sa
[17] = Klebsiella aerogenes, pH 6.8; read-out: Minimum Inhibitory Concentration, Ea
[18] = Escherichia coli, pH 8.2; read-out: Minimum Inhibitory Concentration, Ec
[19] = Staphylococcus aureus, pH 6.8, read-out: Minimum Inhibitory Concentration, Sa
[20] = Staphylococcus aureus, pH 8.2; read-out: Minimum Inhibitory Concentration, Sa

## CCSC#CC#N [B, 3-ethylthio-2-propynenitrile]
[1]; [9]
  MIC: 25 µg/mL (≈ 225 µM)
[1]; [10]
  MIC: 25 µg/mL (≈ 225 µM)
Escherichia coli (Ec); [11]
  MIC: 5 µg/mL (≈ 45 µM)
Escherichia coli (Ec); [12]
  MIC: 10 µg/mL (≈ 90 µM)
[2]; [13]
  MIC: 5 µg/mL (≈ 45 µM)
[2]; [14]
  MIC: 5 µg/mL (≈ 45 µM)
[3]; [15]
  MIC: 5 µg/mL (≈ 45 µM)
[3]; [16]
  MIC: 10 µg/mL (≈ 90 µM)
[4]; malt yeast agar
  MIC: < 1 µg/mL
[5]; malt yeast agar
  MIC: < 1 µg/mL
[6]; malt yeast agar
  MIC: < 1 µg/mL
[7]
  MEC: 25 ppm
[8]
  MEC: 25 ppm

## N#CC#CSC1CCCC1 [C, 3-cyclopentylthio-2-propynenitrile]
[1]; [17]
  MIC: 100 µg/mL (≈ 661 µM)
[1]; [10]
  MIC: 100 µg/mL (≈ 661 µM)
Escherichia coli (Ec); [11]
  MIC: < 10 µg/mL
Escherichia coli (Ec); [18]
  MIC: < 10 µg/mL
[2]; [13]
  MIC: < 10 µg/mL
[2]; [14]
  MIC: 25 µg/mL (≈ 165 µM)
[3]; [19]
  MIC: < 10 µg/mL
[3]; [20]
  MIC: < 10 µg/mL
[4]; malt yeast agar
  MIC: < 1 µg/mL
[5]
  MIC: 2.5 µg/mL (≈ 16.5 µM)
[6]; malt yeast agar
  MIC: 2.5 µg/mL (≈ 16.5 µM)
[7]
  MEC: 100 ppm
[8]
  MEC: 250 ppm

## CSC#CC#N [Compound A, 3-methylthio-2-propynenitrile]
[1]; [17]
  MIC: 2.5 µg/mL (≈ 25.7 µM)
[1]; [10]
  MIC: 25 µg/mL (≈ 257 µM)
Escherichia coli (Ec); [11]
  MIC: 2.5 µg/mL (≈ 25.7 µM)
Escherichia coli (Ec); [18]
  MIC: 5 µg/mL (≈ 51.5 µM)
Escherichia coli (Ec); pH 8.2
  Minimum Inhibitory Concentration, Ec: 5 ppm
[2]; [13]
  MIC: 2.5 µg/mL (≈ 25.7 µM)
[2]; [14]
  MIC: 10 µg/mL (≈ 103 µM)
[3]; [15]
  MIC: 2.5 µg/mL (≈ 25.7 µM)
[3]; [20]
  MIC: 5 µg/mL (≈ 51.5 µM)
[3]; pH 8.2
  Minimum Inhibitory Concentration, Sa: 5 ppm
[4]; malt yeast agar
  MIC: 0.25 µg/mL (≈ 2.57 µM)
[5]; malt yeast agar
  MIC: 0.5 µg/mL (≈ 5.15 µM)
[6]; malt yeast agar
  MIC: 2.5 µg/mL (≈ 25.7 µM)
[7]
  MEC: 10 ppm
[8]
  MEC: 10 ppm

## CSC=C(Cl)C#N [Compound G, 2-chloro-3-(methylthio)-2-propenenitrile]
[1]; [9]
  MIC: 50 µg/mL (≈ 374 µM)
[1]; Klebsiella aerogenes, pH 8.2, read-out: Minimum Inhibitory Concentration, Ea
  MIC: 10 µg/mL (≈ 74.8 µM)
Escherichia coli (Ec); Escherichia coli, pH 6.8, read-out: Minimum Inhibitory Concentration, Ec
  MIC: 50 µg/mL (≈ 374 µM)
Escherichia coli (Ec); [12]
  MIC: 10 µg/mL (≈ 74.8 µM)
[2]; [13]
  MIC: 50 µg/mL (≈ 374 µM)
[2]; [14]
  MIC: 10 µg/mL (≈ 74.8 µM)
[3]; [19]
  MIC: 50 µg/mL (≈ 374 µM)
[3]; [16]
  MIC: 5 µg/mL (≈ 37.4 µM)
[4]
  MIC: 50 µg/mL (≈ 374 µM)
[5]
  MIC: 100 µg/mL (≈ 748 µM)
[6]
  MIC: 50 µg/mL (≈ 374 µM)

## N#CC#CSc1ccc(Cl)cc1 [D, 3-(4-chlorophenylthio)-2-propynenitrile]
[1]; [17]
  MIC: < 10 µg/mL
[1]; [10]
  MIC: 50 µg/mL (≈ 258 µM)
Escherichia coli (Ec); [11]
  MIC: < 10 µg/mL
Escherichia coli (Ec); [18]
  MIC: 50 µg/mL (≈ 258 µM)
[2]; [13]
  MIC: < 10 µg/mL
[2]; [14]
  MIC: 50 µg/mL (≈ 258 µM)
[3]; [15]
  MIC: < 10 µg/mL
[3]; [20]
  MIC: 25 µg/mL (≈ 129 µM)
[4]; malt yeast agar
  MIC: < 1 µg/mL
[5]; malt yeast agar
  MIC: < 1 µg/mL
[6]; malt yeast agar
  MIC: < 1 µg/mL
[7]
  MEC: 100 ppm
[8]
  MEC: 250 ppm

From patent publication US5198445A, “Composition and use of substituted 3-thio-2-propynenitriles as industrial antimicrobials” (The Dow Chemical Company, priority 1992, dated 1993)
